The results in this text go back to US20070185013A1, “Use of chk1 inhibitors to control cell proliferation” (ICOS CORPORATION, priority 2003, published 2007).

For one experiment, the system named is 137-62 tumors. Description: H3-P staining in 137-62 tumors after gemcitabine. The format is in vivo, rat. As for the experimental part: Chem. 271:13197-201. 1996; Goto et al., J Biol Chem. 274:25543-9, 1999). The assay protocol was as follows. Tumors from rodents treated or untreated with Chk1 activator (in the present study, chemotherapy agent) and/or Chk1 inhibitor, were excised and paraffin embedded. The tumors are cut into 6 micron thick slices and mounted on glass slides. […] The slides are then heated to 95° C. in 10 mM sodium citrate for 10 minutes followed by a 20 minute cooling step. The slides are blocked for 30 minutes with Block buffer (20% normal human serum and 2% bovine serum albumin in phosphate buffered saline containing 0.05% Triton X-100 (PBST)). The anti-phospho histone H3 antibody (Upstate Biotech, Cat. #06-570) is diluted 1:200 in the Block buffer and incubated with the slides for one hour. The slides are washed 3 times 5 minutes in PBST. The secondary antibody, donkey anti-rabbit rhodamine (Jackson, cat #711-295-152) was added for 30 minutes. The slides were then washed twice in PBST and […] of […] DAPI (Sigma) in PBS is added and allowed to stain for 30 minutes. The slides were then washed two more times in PBST and mounted with Vectashield (Vector, cat # H-1400). Slides were viewed using fluorescence microscopy. The percentage of cells stained with H3-P antibody relative to total (DAPI stained) cells were quantified using Metamorph software (Universal Imaging Corporation, Version 4.6). […]

The test system of another experiment is Chk1. Put plainly: Chk1 serine 317 and 345 phosphorylation, Western blot in HT29 cells. The experiment is classed as cell-based, human. The conditions noted are these: 20 μM gemcitabine for two hours, 22 additional hours. The text has this:
To determine whether an agent is a Chk1 activator, the phosphorylation state of Chk1 can be measured using phospho-specific antibodies to specific phosphorylation sites on Chk1. […] Liu, Q., et al., (2000) Genes Dev. 14, 1448-1459; Zhao, H., et al., (2001) Mol. Cell. Biol. 21, 4129-4139; Lopez-Girona, A., et al., (2001) Proc. Natl. Acad. Sci. U.S.A. 98, 11289-11294; Guo, Z., et al., (2000). Genes Dev. 14, 2745-2756; Gatei, M., et al., (2003) J. Biol. Chem. 278, 14806-14811; Ng C P, et al., J Biol Chem. 2004 Mar. 5; 279(10):8808-19; Wang Y, et al., Natl Acad Sci USA. 2003 Dec. 23; 100(26):15387-92; Stojic L, et al., Genes Dev. 2004 Jun. 1; 18(11):1331-44. These serine sites are phosphorylated by upstream checkpoint kinases, Atm and Atr. Liu, Q., et al., S. J. (2000) Genes Dev. 14, 1448-1459; Zhao, H., et al. (2001) Mol. Cell. Biol. 21, 4129-4139).
The phosphorylation of these sites in response to a candidate Chk1 activator can be monitored by Western blot or immunohistochemistry of tumor cells. […] HT29 cells were treated with 20 μM gemcitabine for two hours. The gemcitabine was washed out of the cell growth media and cells were incubated for 22 additional hours. Protein lysates were prepared and separated by an SDS-polyacrylamide gel electrophoresis. […]

The next experiment has as its system HT29 tumors. Description: H3-P mitotic index assay in HT29 tumors. The format is in vivo, mice. The conditions noted are these: for mitotic index (H3-P): 100 mg/kg gemcitabine i.p. As for the experimental part: Chem. 271:13197-201. 1996; Goto et al., J Biol Chem. 274:25543-9, 1999). The assay protocol was as follows. Tumors from rodents treated or untreated with Chk1 activator (in the present study, chemotherapy agent) and/or Chk1 inhibitor, were excised and paraffin embedded. The tumors are cut into 6 micron thick slices and mounted on glass slides. […] The slides are then heated to 95° C. in 10 mM sodium citrate for 10 minutes followed by a 20 minute cooling step. The slides are blocked for 30 minutes with Block buffer (20% normal human serum and 2% bovine serum albumin in phosphate buffered saline containing 0.05% Triton X-100 (PBST)). The anti-phospho histone H3 antibody (Upstate Biotech, Cat. #06-570) is diluted 1:200 in the Block buffer and incubated with the slides for one hour. The slides are washed 3 times 5 minutes in PBST. The secondary antibody, donkey anti-rabbit rhodamine (Jackson, cat #711-295-152) was added for 30 minutes. The slides were then washed twice in PBST and […] of […] DAPI (Sigma) in PBS is added and allowed to stain for 30 minutes. The slides were then washed two more times in PBST and mounted with Vectashield (Vector, cat # H-1400). Slides were viewed using fluorescence microscopy. The percentage of cells stained with H3-P antibody relative to total (DAPI stained) cells were quantified using Metamorph software (Universal Imaging Corporation, Version 4.6). […] Tumors from these animals were resected, paraffin embedded and stained with an antibody to H3-P followed by a counter-stained with DAPI. The percentage of mitotic cells (positive to H3-P) was quantified at each time point. […] To determine whether checkpoint abrogation by selective Chk1 inhibitor was dose-dependent, HT29 tumor-bearing mice were pretreated with gemcitabine and 32 hours later dosed with increasing doses of selective Chk1 inhibitor. After 18 hours, tumors were harvested and stained for H3-P as described above. […] The response is saturated at 400 mg/kg.

Consider `Nc1ccn([C@@H]2O[C@H](CO)[C@@H](O)C2(F)F)c(=O)n1` [gemcitabine], for which the “time at which cells exited S phase arrest” value in the experiment with 137-62 tumors (137-62 cells, after gemcitabine) was 24 h. Further, the “time of lowest H3-P staining” value in the experiment with 137-62 tumors (137-62 tumors treated with gemcitabine) was 12 h; in the experiment with HT29 tumors (HT29, treated with gemcitabine) it was 48 h. Besides, the “phosphorylation of Chk1 serines 317 and 345” value with Chk1 was “results in the phosphorylation of both serines 317 and 345”. Besides, the “mitotic cells (H3-P positive)” value with HT29 tumors (100 mg/kg gemcitabine for 48 hours alone) is recorded as “approximately 4%”. Besides, the “mitotic index (H3-P)” value in the experiment on HT29 tumors (1-6 hr time points) is on record as “approximately 3”; in the experiment with HT29 tumors (between 12 and 24 hr after administration) it was “approximately 1.5”. Also, the “time of optimal S phase arrest post-gemcitabine treatment” value in the experiment on HT29 tumors (HT29 tumors, from H3-P and Rb-Pser795 staining) fell in the range of 24 to 48 h.
